Values of other authors in US11278564B2, “Brain function-improving agent, food, and medicine using lipopolysaccharide” (Control of Innate Immunity Technology Research Association, priority 2017, dated 2022).

Conditions: intraperitoneal injection (NPL 5)

Q: What does the source list for monophosphoryl lipid A [MPL]?
A: Aβ intracerebral deposition: Aβ intracerebral deposition suppressing action; learning function: learning function-improving action
